One assay has as its target PRMT5/MEP50 complex (Homo sapiens (Human), UniProt O14744). Nature of the assay: PRMT5:MEP50 FlashPlate Assay. Type of assay: biochemical. As to the method: The PRMT5 inhibitory activity of compounds of the present invention was determined using a PRMT5:MEP50 FlashPlate Assay (Reaction Biology Corporation).
The assay uses purified human, PRMT5 enzyme to convert S-adenosyl-L-[methyl-^3H]methionine plus histone H4 L-arginine to S-adenosyl-L-homocysteine plus histone H4 [methyl-^3H]-L-arginine. The assay was carried out using Streptavidin-coated FlashPlates (Perkin Elmer), which contained a scintillant embedded in the plastic of the plate. The histone H4 peptide substrate was conjugated with biotin, which binds to the streptavidin-coated well of the plate, placing the H4 peptide in close proximity to the side well and the scintillant. The transfer of the tritiated methyl group from S-adenosyl-L-[methyl-^3H]methionine to the bound histone H4 peptide generated a radiolabeled histone H4, which was quantitated by measuring in a scintillation counter to determine the activity of PRMT5 enzyme in the presence and absence of compound. […] Briefly, compounds of the present invention were solubilized in 100% DMSO at a highest concentration of 10 mM. For IC, determinations, the initial starting concentration for the serial dilutions of each compound was 50 μM. Control samples lacking compound, PRMT5/MEP50 complex or various reaction components also were prepared and processed in parallel with compound test samples. SAH was used as a positive control for assay validation. To measure PRMT5 inhibitory activity, 3 nM PRMT5/MEP50 complex (Reaction Biology Corporation) was preincubated with test compound in assay buffer containing 40 nM histone H4 peptide (amino acids 1-15)-Biotin conjugate for 20 min at room temperature. The enzymatic reaction was initiated by adding 1 μM tritiated S-adenosyl methionine (final concentration) and the reaction is allowed to proceed for 20 min. The reaction was stopped and the amount of bound, tritiated H4 peptide in each sample was determined using a scintillation counter. The IC50 value for each compound was calculated from each 10-point dose-response curve for samples plus and minus MTA using GraphPad Prism software and the results for exemplary compounds of Formula (I) is shown in Table 9a.

Assay [1] concerns the target recombinant human dual expressed Avi PRMT5/His-MEP50 protein (Homo sapiens (Human), UniProt O14744). Briefly: HTRF binding assay in presence of MTA. Particulars: 30 μM MTA. As to the method: The PRMT5 binding activity of compounds of the present invention was determined using an HTRF binding assay or SPR assay.
A recombinant human dual expressed Avi PRMT5/His-MEP50) protein (corresponding to amino acids for PRMT5 2-637, and 2-342 for MEP50 expressed in baculovirus) was incubated with target fragments in final buffer (25 mM ADA pH 7.2, 30 μM MTA, 1 mM TCEP, 50 mM NaCl, 0.002% Tween, 5 nM proprietary Tracer binding compound prepared in-house), overnight at 2-8° C. After overnight incubation the binding is monitored after the addition of 0.5 nM Anti-His-Tb (Cisbio) after 1 hr incubation at RT (˜20-24 hrs total binding time). The HTRF signal was measured using a Clariostar reader (BMG) excitation filter (Ex Tr), dichroic filter (LP TP) and emission filters (F 665-10 and F 620-10) manufacturer's instructions. The HTRF ratio was calculated using the formula: [emission 665/emission 620]*10000.

For assay [2], the target named is PRMT5•MTA (biotinylated PRMT5-MEP50) (Homo sapiens (Human), UniProt O14744). Nature of the assay: SPR binding assay, MTA running buffer. The following applies: 20 μM MTA running buffer. As to the method: (§1) SPR screening was performed in MTA running buffer (25 mM Bicine pH 7.6, 100 mM NaCl, 1 mM TCEP, 20 μM MTA, 0.05% Tween-20 and 2% DMSO). The biotinylated PRMT5-MEP50 surface was equilibrated with MTA running buffer for 12 hours prior to the start. […] Subsequently, compound titration was repeated in SAM-running buffer (25 mM Bicine pH 7.6, 100 mM NaCl, 1 mM TCEP, 20 μM SAM, 0.05% Tween-20, and 2% DMSO). […] After double referencing, the steady-state response was extracted for each fragment concentration and was fit to the Langmuir isotherm equation to determine the equilibrium dissociation constant (KD).
PRMT5•MTA (biotinylated PRMT5-MEP50), sequence (O14744 whole entry, the tested form may be a part): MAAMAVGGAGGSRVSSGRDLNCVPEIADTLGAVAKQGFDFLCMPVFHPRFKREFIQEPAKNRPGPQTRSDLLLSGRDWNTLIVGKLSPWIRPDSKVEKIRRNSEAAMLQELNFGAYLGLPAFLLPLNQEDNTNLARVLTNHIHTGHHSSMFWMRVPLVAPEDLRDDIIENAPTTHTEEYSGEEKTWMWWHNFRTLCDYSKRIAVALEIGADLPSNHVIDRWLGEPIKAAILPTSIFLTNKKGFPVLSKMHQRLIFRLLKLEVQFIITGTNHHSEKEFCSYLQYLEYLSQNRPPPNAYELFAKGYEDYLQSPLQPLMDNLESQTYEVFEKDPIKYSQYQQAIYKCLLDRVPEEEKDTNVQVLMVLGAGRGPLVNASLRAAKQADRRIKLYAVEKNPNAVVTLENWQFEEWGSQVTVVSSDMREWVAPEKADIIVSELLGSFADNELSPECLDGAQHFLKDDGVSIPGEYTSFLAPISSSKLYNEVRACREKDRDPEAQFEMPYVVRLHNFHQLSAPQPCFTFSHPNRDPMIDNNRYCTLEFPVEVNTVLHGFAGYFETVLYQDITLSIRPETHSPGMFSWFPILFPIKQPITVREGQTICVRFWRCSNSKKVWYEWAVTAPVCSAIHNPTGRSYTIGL
PRMT5•MTA (biotinylated PRMT5-MEP50), sequence (Q9BQA1 whole entry partner, the tested form may be a part): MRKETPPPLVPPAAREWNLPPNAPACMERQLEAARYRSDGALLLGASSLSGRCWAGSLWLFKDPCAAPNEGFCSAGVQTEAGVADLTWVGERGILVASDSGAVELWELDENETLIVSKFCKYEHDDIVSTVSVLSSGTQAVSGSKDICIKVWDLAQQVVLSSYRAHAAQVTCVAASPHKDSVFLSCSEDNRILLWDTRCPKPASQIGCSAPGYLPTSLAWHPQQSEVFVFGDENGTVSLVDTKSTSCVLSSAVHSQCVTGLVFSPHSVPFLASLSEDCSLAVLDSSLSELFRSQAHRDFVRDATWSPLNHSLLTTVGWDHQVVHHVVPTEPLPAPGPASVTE
(SPR reads the build-up and loss of mass on a sensor chip optically.)

The target in assay [3] is PRMT5•SAM (biotinylated PRMT5-MEP50) (Homo sapiens (Human), UniProt O14744). Briefly: SPR binding assay, SAM running buffer. The following applies: 20 μM SAM running buffer. How it is done:
as §1

Where [4] appears, read: histone H4 peptide, absence of MTA, read-out: IC50.
Setting [5] is: read-out: IC50 + 2 μM MTA, histone H4 peptide, presence of 2 μM MTA.
The mark [6] stands for this setting: IC50 + 2 μM MTA, histone H4 peptide, presence of 2 μM MTA.

The structures appear in SMILES notation. Like-named read-outs stand apart in the source and are kept apart here.

Broadly, the IC50 is the midpoint of a concentration-inhibition curve. A word on the Kd: it is a measure of binding affinity in units of concentration. Lower therefore signals tighter binding.

PRMT5•SAM (biotinylated PRMT5-MEP50), sequence (O14744 whole entry): as the sequence (O14744 whole entry, the tested form may be a part) above
PRMT5•SAM (biotinylated PRMT5-MEP50), sequence (Q9BQA1 whole entry partner): as the sequence (Q9BQA1 whole entry partner, the tested form may be a part) above
PRMT5/MEP50 complex, sequence (O14744 whole entry): as the sequence (O14744 whole entry, the tested form may be a part) above
PRMT5/MEP50 complex, sequence (Q9BQA1 whole entry partner): as the sequence (Q9BQA1 whole entry partner, the tested form may be a part) above
recombinant human dual expressed Avi PRMT5/His-MEP50 protein, sequence (O14744 2-637): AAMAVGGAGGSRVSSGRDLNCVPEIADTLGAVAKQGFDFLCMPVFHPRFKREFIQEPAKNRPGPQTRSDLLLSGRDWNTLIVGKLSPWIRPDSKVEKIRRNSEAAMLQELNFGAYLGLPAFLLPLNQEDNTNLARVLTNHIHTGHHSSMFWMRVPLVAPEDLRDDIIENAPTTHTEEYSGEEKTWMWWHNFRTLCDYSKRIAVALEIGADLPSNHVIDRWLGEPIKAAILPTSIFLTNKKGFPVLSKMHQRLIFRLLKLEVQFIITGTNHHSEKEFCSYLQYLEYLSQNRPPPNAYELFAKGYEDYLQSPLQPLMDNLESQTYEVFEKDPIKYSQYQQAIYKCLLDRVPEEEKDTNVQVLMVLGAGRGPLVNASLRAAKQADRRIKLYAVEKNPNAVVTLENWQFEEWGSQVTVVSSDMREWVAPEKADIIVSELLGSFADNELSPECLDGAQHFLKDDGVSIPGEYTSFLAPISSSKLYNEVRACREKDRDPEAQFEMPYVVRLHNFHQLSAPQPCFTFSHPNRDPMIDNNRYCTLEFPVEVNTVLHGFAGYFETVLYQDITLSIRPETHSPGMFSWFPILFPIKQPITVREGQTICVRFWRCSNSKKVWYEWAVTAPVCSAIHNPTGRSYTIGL
recombinant human dual expressed Avi PRMT5/His-MEP50 protein, sequence (Q9BQA1 2-342 partner): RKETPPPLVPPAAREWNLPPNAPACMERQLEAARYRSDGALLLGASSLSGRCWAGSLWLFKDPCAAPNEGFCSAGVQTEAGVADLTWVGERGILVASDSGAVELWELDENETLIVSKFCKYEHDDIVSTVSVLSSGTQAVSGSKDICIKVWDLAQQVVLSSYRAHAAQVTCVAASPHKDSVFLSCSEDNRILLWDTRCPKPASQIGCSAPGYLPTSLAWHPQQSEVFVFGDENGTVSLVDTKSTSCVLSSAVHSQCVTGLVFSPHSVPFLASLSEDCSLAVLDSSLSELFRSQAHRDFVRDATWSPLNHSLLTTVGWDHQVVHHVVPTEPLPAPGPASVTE

As to `Cc1cc(N)nc2cc(C(C#N)N3C(=O)c4ccccc4C3=O)cnc12` (stereo not shown) [Example 7-7, 2-(6-amino-8-methyl-1,5-naphthyridin-3-yl)-2-(1,3-dioxoisoindolin-2-yl)acetonitrile], the IC50 at PRMT5/MEP50 complex (setting [4]) was greater than 300 µM; on PRMT5/MEP50 complex (setting [5]), 2.39 µM; in assay [1], 0.024 µM.
With `Nc1ccc2[nH]c(NC(=O)c3ccccc3)cc2n1` [Example 12-3, N-(5-amino-1H-pyrrolo[3,2-b]pyridin-2-yl)benzamide], the IC50 on PRMT5/MEP50 complex (setting [4]) was 95.9 µM; on PRMT5/MEP50 complex (setting [5]) it was 97.7 µM; in assay [1] it was 18.3 µM.
In the case of `CC(=O)c1c(CNC(=O)c2ccccc2)[nH]c2cc(C)c(N)nc12` [Example 15-5, N-((3-acetyl-5-amino-6-methyl-1H-pyrrolo[3,2-b]pyridin-2-yl)methyl)benzamide], the figures for the Kd in assay [2] and in assay [3] were 774 µM and 631 µM, respectively. In addition, the IC50 in assay [1] was no less than 100 µM.
As for `Cc1cc2[nH]c(N3CCNC3=O)cc2nc1N` [Example 13-6, 1-(5-amino-6-methyl-1H-pyrrolo[3,2-b]pyridin-2-yl)imidazolidin-2-one], the figures for the IC50 (on PRMT5/MEP50 complex (setting [6]); at PRMT5/MEP50 complex (setting [4]); in assay [1]) were 183 µM, 60.3 µM and 6.69 µM, respectively.
On the same counts, the results for `Cc1cc2[nH]c(-n3cnc(Br)n3)cc2nc1N` [Example 13-2, 2-(3-bromo-1,2,4-triazol-1-yl)-6-methyl-1H-pyrrolo[3,2-b]pyridin-5-amine] are 72.8 µM, 83.8 µM and 4.27 µM.
For `Cc1cc2c(cc(CNC(=O)c3ccccc3)n2C2CC2)nc1N` [Example 15-1, N-[(5-amino-1-cyclopropyl-6-methyl-pyrrolo[3,2-b]pyridin-2-yl)methyl]benzamide], the results for the IC50 (at PRMT5/MEP50 complex (setting [4]); at PRMT5/MEP50 complex (setting [5]); in assay [1]) were greater than 300 µM, 44.9 µM and 0.362 µM, respectively. The dissociation constant (Kd) in assay [2] worked out at 0.066 µM.
On the same counts, the results for `Cc1cc(N)nc2cc(Oc3cccnc3)cnc12` [Example 3-7, 4-methyl-7-(3-pyridyloxy)-1,5-paphthyridin-2-amine] are 351 µM, 26.1 µM, 0.546 µM and 2.46 µM.
Regarding `Cc1cc(N)nc2cc(Cc3cccnc3)cnc12` [Example 2-7, 4-methyl-7-(3-pyridylmethyl)-1,5-naphthyridin-2-amine], the Kd in assay [2] was determined as 0.232 µM; in assay [3], 1.22 µM. Also, in assay [1], the IC50 was determined as 0.581 µM.
`Cc1cc(N)nc2cc(Oc3ccccn3)cnc12` [Example 3-6, 4-methyl-7-(pyridin-2-yloxy)-1,5-naphthyridin-2-amine]: the IC50 in assay [1] came to 40.6 µM.
Take `Cc1cc2c(cc(CNC(=O)c3ccccc3)n2C)nc1N` [Example 15-3, N-[(5-amino-1,6-dimethyl-pyrrolo[3,2-b]pyridin-2-yl)methyl]benzamide]: the IC50 in assay [1] was found to be 0.138 µM.
Regarding `CC(=O)N(C)Cc1cc2nc(N)c(C)cc2n1C(C)=O` [Example 15-8, N-((1-acetyl-5-amino-6-methyl-1H-pyrrolo[3,2-b]pyridin-2-yl)methyl)-N-methylacetamide], the Kd in assay [2] was 0.043 µM; in assay [3], 0.341 µM. Besides, the IC50 in assay [1] stood at 1.01 µM.
Take `Cc1cc(N)nc2ccc(-c3cccnc3)nc12` [Example 4-3, 4-methyl-6-(3-pyridyl)-1,5-naphthyridin-2-amine]: the IC50 in assay [1] is 23.9 µM.
In the case of `Nc1ccc2c(n1)CN(c1cncc(Oc3ccccc3)c1)CC2` [Example 11-2, 7-(5-phenoxy-3-pyridyl)-6,8-dihydro-5H-1,7-naphthyridin-2-amine], the figures for the IC50 (on PRMT5/MEP50 complex (setting [5]); in assay [1]) were 5.8 µM and 0.073 µM, respectively.
With `Cc1cc(N)nc2cc(-c3ccccc3)cnc12` [Example 1-1, 4-methyl-7-phenyl-1,5-naphthyridin-2-amine], the IC50 in assay [1] was 17.2 µM.
With `Cc1cc(N)nc2cc(-c3ccccn3)cnc12` [Example 1-2, 4-methyl-7-(pyridin-2-yl)-1,5-naphthyridin-2-amine], in assay [1], the IC50 is 82 µM.
For the molecule `Cc1cc(N)nc2cc(-c3cnn(C)c3)cnc12` [Example 1-7, 4-methyl-7-(1-methyl-1H-pyrazol-4-yl)-1,5-naphthyridin-2-amine], the IC50 in assay [1] is 7.92 µM.
In the case of `Cc1cc2[nH]c(N3CCN(C)C3=O)cc2nc1N` [Example 13-5, 1-(5-amino-6-methyl-1H-pyrrolo[3,2-b]pyridin-2-yl)-3-methyl-imidazolidin-2-one], the IC50 at PRMT5/MEP50 complex (setting [6]) is 70 µM; at PRMT5/MEP50 complex (setting [4]), greater than 300 µM; in assay [1] it was 31.8 µM.
`Cc1cc(N)nc2ccc(-c3ccc(F)cc3)nc12` [Example 4-9, 6-(4-fluorophenyl)-4-methyl-1,5-naphthyridin-2-amine]: in assay [1], the IC50 worked out at 14 µM.
As for `Cc1cc(N)nc2cc(-c3ccsn3)cnc12` [Example 1-5, 7-(isothiazol-3-yl)-4-methyl-1,5-naphtbyridin-2-amine], the IC50 in assay [1] came to 55.5 µM.
In the case of `Cc1cc2[nH]c(CNC(=O)c3ccccc3)c(C#N)c2nc1N` [Example 15-6, N-((5-amino-3-cyano-6-methyl-1H-pyrrolo[3,2-b]pyridin-2-yl)methyl)benzamide], the IC50 was greater than 300 µM at PRMT5/MEP50 complex (setting [4]), 76.7 µM at PRMT5/MEP50 complex (setting [5]) and 2.64 µM in assay [1].
On to `C#Cc1c(CNC(=O)c2ccccc2)[nH]c2cc(C)c(N)nc12` [Example 15-4, N-((5-amino-3-ethynyl-6-methyl-1H-pyrrolo[3,2-b]pyridin-2-yl)methyl)benzamide], for which the IC50 in assay [1] was found to be 17 µM.
On to `Cc1cc2[nH]c(N3CC(=O)NC3=O)cc2nc1N` [Example 13-7, 1-(5-amino-6-methyl-1H-pyrrolo[3,2-b]pyridin-2-yl)imidazolidine-2,4-dione], for which the IC50 at PRMT5/MEP50 complex (setting [6]) is greater than 300 µM; at PRMT5/MEP50 complex (setting [4]), greater than 300 µM; in assay [1] it was 2.29 µM.
As to `Cc1cc2[nH]c(NC(=O)c3ccccc3)cc2nc1N` [Example 12-2, N-(5-amino-6-methyl-1H-pyrrolo[3,2-b]pyridin-2-yl)benzamide], the IC50 turned out to be 60.2 µM at PRMT5/MEP50 complex (setting [4]), 44.7 µM on PRMT5/MEP50 complex (setting [5]) and 5.46 µM in assay [1].
In the case of `CC(=O)N1CCC(=O)n2c(cc3nc(N)c(C)cc32)C1` [Example 15-2, 11-acetyl-5-amino-4-methyl-1,6,11-triazatricyclo[7.5.0.0^2,7]tetradeca-2,4,6,8-tetraen-14-one], the IC50 is greater than 300 µM on PRMT5/MEP50 complex (setting [4]), 57.9 µM at PRMT5/MEP50 complex (setting [5]) and 2.47 µM in assay [1].
For `Cn1ncc(N2CCc3cc(F)c(N)nc3C2)c1-c1ccccc1C#N` [Example 11-4, 2-(4-(2-amino-3-fluoro-5,6-dihydro-1,7-naphthyridin-7(8H)-yl)-1-methyl-1H-pyrazol-5-yl)benzonitrile], the IC50 is greater than 300 µM at PRMT5/MEP50 complex (setting [4]), 79.8 µM at PRMT5/MEP50 complex (setting [5]) and 1.43 µM in assay [1].
As for `Cc1cc(N)nc2cc(Oc3ccccc3)cnc12` [Example 3-1, 4-methyl-7-phenoxy-1,5-naphthyridin-2-amine], the IC50 in assay [1] amounted to 8.99 µM.
With `Cc1cc(N)nc2ccc(-c3cnn(C)c3)nc12` [Example 4-5, 4-methyl-6-(1-methylpyrazol-4-yl)-1,5-naphthyridin-2-amine], the IC50 in assay [1] amounted to 64.1 µM.
For the molecule `Cc1cc(N)nc2ccc(-c3cncs3)nc12` [Example 4-4, 4-methyl-6-thiazol-5-yl-1,5-naphthyridin-2-amine], the IC50 in assay [1] stood at 29.6 µM.
